Data reported in US8252737B2, “Antimicrobial peptides and methods of use” (priority 2004, dated 2012).
In brackets after ≈: the same amount, converted by molar mass.

Tests used:
[1] = test system: Corynebacterium xerosis
[2] = C610 abs
Procedure: (§1) The geometric mean MIC values from 6 microbial strains in this table were calculated to provide an overall evaluation of antimicrobial activity against gram-negative bacteria.
(§2) Measurement of Antimicrobial Activity—Minimal inhibitory concentrations (MICs) were determined using a standard microtiter dilution method in LB (Luria-Bertani) no-salt medium (10 g of tryptone and 5 g of yeast extract per liter). Briefly, cells were grown overnight at 37° C. in LB and diluted in the same medium. […] Plates were incubated at 37° C. for 24 hours and MICs determined as the lowest peptide concentration that inhibited growth. Alternatively, minimal inhibitory concentrations were determined using a standard microtiter dilution method in a Mueller-Hinton (MH) medium. Briefly, cells were grown overnight at 37° C. in MH broth and diluted in the same medium. […] Plates were incubated at 37° C. for 24 hours and MICs determined as the lowest peptide concentration that inhibited growth. However, for MIC determination of Pseudomonas aeruginosa clinical isolates, brain heart infusion (BH1) medium was used instead of MH broth. In addition, the bacteria were diluted to a final inoculum of 1×10^6 colony-forming units/ml.

[3] = test system: E. coli (UB 1005 wt and DC2 abs)
Procedure: as §1, §2

[4] = test system: P. aeruginosa H187 wt
Procedure: as §1, §2

[5] = test system: S. typhimurium C610 abs; conditions: C610 abs
Procedure: as §1, §2

[6] = test system: gram-negative bacteria; assay: MIC, microtiter dilution, Gram-negative bacteria (geometric mean of 6 strains); format: cell-based; conditions: geometric mean of MIC values from all 6 Gram-negative strains of Table 11
Procedure: as §1
In Table 11, geometric mean MIC was calculated to provide an overall view of antimicrobial activity of the peptides against Gram-negative bacteria and was also used to calculate the therapeutic index.
as §2

[7] = test system: Pseudomonas aeruginosa strains
Procedure: Pseudomonas aeruginosa strains used in this study are a diverse group of clinical isolates from different places in the world. […] The geometric mean MIC values from six Pseudomonas aeruginosa strains were calculated to provide an overall evaluation of antimicrobial activity of these peptides against Pseudomonas aeruginosa. Fold improvement was calculated by comparing the geometric mean MIC value of each peptide to that of the parent peptide V681.
as §2
For the Leu-substituted peptides, the hemolytic activity against human erythrocytes was determined as the maximal peptide concentration that produces no hemolysis after 18 hours of incubation at 37° C. Antimicrobial activity of the peptides was determined on a diverse group of Pseudomonas aeruginosa clinical isolates. […] The geometric mean MIC values from six Pseudomonas strains in Table 14 were calculated to provide an overall evaluation of antimicrobial activity of the peptides with different hydrophobicities.

[8] = test system: Staphylococcus epidermidis
[9] = test system: human erythrocytes; assay: Hemolytic activity (MHC), Protocol B, 18 hours; conditions: for MHC (μg/ml) hRBC: maximal peptide concentration with no hemolysis after 18 hours
Procedure: In order to evaluate the biological activities of the D-enantiomeric peptides, namely D-NAL and D-NKD, the hemolytic activity of the peptides against human erythrocytes was determined as the maximal peptide concentration that produces no hemolysis after 18 hours of incubation at 37° C.
(§3) Measurement of Hemolytic Activity—Protocol A: Peptide samples were added to 1% human erythrocytes in phosphate buffered saline (0.08M NaCl; 0.043M Na2PO4; 0.011M KH2PO4) and reactions were incubated at 37° C. for 12 hours in microtiter plates. Peptide samples were diluted 2 fold in order to determine the concentration that produced no hemolysis. […] Hemoglobin release was determined spectrophotometrically at 562 nm. The hemolytic titer was the highest 2-fold dilution of the peptide that still caused release of hemoglobin from erythrocytes. The control for no release of hemoglobin was a sample of 1% erythrocytes without any peptide added. […] Peptide samples were diluted 2 fold in order to determine the concentration that produced no hemolysis. […] Hemoglobin release was determined spectrophotometrically at 570 nm. The hemolytic titer was the highest 2-fold dilution of the peptide that still caused release of hemoglobin from erythrocytes. The control for no release of hemoglobin was a sample of 1% erythrocytes without any peptide added.

[10] = test system: Staphylococcus aureus
[11] = test system: Bacillus subtilis
[12] = test system: E. faecalis
Procedure: as §2

[13] = test system: gram-positive bacteria
Procedure: as §2

[14] = RP-HPLC temperature profiling (hydrophobicity and self-association/dimerization parameter PA); format: physicochemical
Procedure: The retention time data for the peptides is shown in Table 5 which records retention times at 5° C., the maximal retention times and retention times at 80° C. during the temperature profiling. Temperatures of 5° C. and 80° C. were the lower and upper temperature limits of temperature profiling in RP-HPLC, representing dimerization of the peptides at 5° C. and the monomerization of peptides at 80° C. due to dissociation of the dimers. The maximal retention times represent the threshold points at which peptides transform from dimeric to monomeric form. Among the non-polar face substituted peptides, peptides with more hydrophobic substitutions (whether L- or D-amino acid substitutions) were more retained during RP-HPLC, i.e., peptides were eluted in the order of Lys, Gly, Ser, Ala, Val and Leu (Table 5). In addition, on the non-polar face, the L-analogs were always more retained than the D-diastereomers (Table 5, FIG. 5). […] In contrast, on the polar face, the elution order of peptides was not correlated with the order of amino acid side-chain hydrophobicity, e.g., PAL and PSL were more retained than PVL (Table 5); PSD was the most retained peptide among the D-amino acid substituted analogs on the polar face (Table 5).
The ability of the D-peptides to self-associate was determined by RP-HPLC temperature profiling. […] As expected, L- and D-peptide enantiomers were totally inseparable over this temperature range, since each pair of peptides is identical in sequence and must adopt identical conformations on interacting with the reversed-phase matrix, whether in an all-L- or all-D-conformation. RP-HPLC retention behavior has been frequently utilized to represent overall peptide hydrophobicity (53, 26). In the present study, the hydrophobicity of the three peptide pairs is in the order V681/D-V681>[…]>NKL/D-NKD (Table 4), which agrees with the change in hydrophobicity of the substitutions at position 13 in order of the most hydrophobic to the least hydrophobic amino acid residue (Val in V681>Ala in NA>Lys in NK) (54). […] For example, the retention times of peptides V681/D-V681 increase with increasing temperature (up to ˜30° C.) followed by a retention time decrease with a further temperature increase. […] Since peptide C is a monomeric random coil peptide in both aqueous and hydrophobic media, its retention behavior over the temperature range 5° C. to 80° C. represents only general temperature effects on peptide retention behavior, i.e., a linear decrease in peptide retention time with increasing temperature due to greater solute diffusivity and enhanced mass transfer between the stationary and mobile phases at higher temperatures (55). Thus, after normalization to the retention times of peptide C, the retention behavior of the peptides represents only peptide self-association ability. Note that the higher the PA value, the greater the self-association ability. […] From Table 4, it is also clear that the peptide retention times at 80° C. are dramatically lower than those at 5° C.
Elution times during RP-HPLC have frequently been utilized as a measure of relative hydrophobicity of peptide analogs (26, 31). In the current study, peptide analogs differed only by a single amino acid substitution on either the non-polar face or the polar face of V681; thus, the retention time data in Table 5 can be considered to reflect the hydrophobicity difference between peptide analogs. In order to more easily visualize the variation in hydrophobicity of the peptide analogs, the retention time data in Table 5 were normalized relative to that of the native peptide V681 at 5° C. and 80° C., respectively. Hydrophobicity relative to the native peptide V681 indicates an increase or decrease of the apparent peptide hydrophobicity with the different amino acid substitutions on the polar or non-polar face. […]

[15] = test system: human erythrocytes; assay: Hemolytic activity (MHC), Protocol A, 12 hours; conditions: incubation for 12 hours at 37° C. (Tables 7 and 8)
Procedure: as §3

[16] = Circular dichroism spectroscopy of helical structure (benign buffer and 50% TFE); format: physicochemical; conditions: 25° C.
Procedure: To determine the secondary structure of peptides in different environments, circular dichroism (CD) spectra of the peptide analogs were measured under physiologically related pH and ionic strength (100 mM KCl, 50 mM aq. PO4, pH 7 referred to as benign conditions) and also in 50% TFE to mimic the hydrophobic environment of the membrane. […] On the non-polar face, the native L-Val residue was critical in maintaining α-helical structure. […] Even the substitution with L-Ala, which is known to have the highest α-helical propensity of all 20 amino acids (34), could not stabilize the α-helical structure. […] It is noteworthy that, on the non-polar face, the magnitude of the helical content of L-peptides in benign buffer was related to the hydrophobicity of the substituting amino acids, i.e., NLL>NVL>NAL>NSL, NKL, again showing the importance of hydrophobicity on the non-polar face in maintaining the α-helical structure. […] However, whether L- or D-substitutions were made on the non-polar face, high helical structure could be induced by the hydrophobic environment of 50% TFE, a mimic of the membrane's hydrophobicity and α-helix inducing ability (Table 3).
To determine the secondary structure of the D-enantiomeric peptides in different environments, CD spectra of the peptide analogs were measured under benign conditions (100 mM KCl, 50 mM KH2PO4/K2HPO4, pH 7.4, referred to as KP buffer) and also in 50% trifluoroethanol (TFE) to mimic the hydrophobic environment of the membrane. […] However, in the presence of 50% TFE, all three L-peptides were fully folded α-helical structures with similar ellipticities and helicity (Table 4).
Characterization of Helical Structure—The mean residue molar ellipticities of peptides were determined by circular dichroism (CD) spectroscopy, using a Jasco J-720 spectropolarimeter (Jasco, Easton, Md.), at 25° C. under benign conditions (50 mM KH2PO4/K2HPO4/100 mM KCl, pH 7), as well as in the presence of an α-helix inducing solvent, 2,2,2-trifluoroethanol (TFE) (50 mM KH2PO4/K2HPO4/100 mM KCl, pH 7 buffer/50% TFE). A 10-fold dilution of a ˜500 μM stock solution of the peptide analogs was loaded into a 0.02 cm fused silica cell and its ellipticity scanned from 190 to 250 nm. The values of molar ellipticities of the peptide analogs at a wavelength of 222 nm were used to estimate the relative α-helicity of the peptides.

CC[C@@H](C)[C@@H](NC(=O)[C@@H](C)NC(=O)[C@@H](CCCCN)NC(=O)[C@@H](CC(C)C)NC(=O)[C@@H](C)NC(=O)[C@H](NC(=O)[C@@H](Cc1c[nH]cn1)NC(=O)[C@@H](CC(C)C)NC(=O)[C@H](NC(=O)[C@H](NC(=O)[C@@H](CCCCN)NC(=O)[C@H](NC(=O)[C@@H](C)NC(=O)[C@@H](CO)NC(=O)[C@@H](CCCCN)NC(=O)[C@@H](Cc1ccccc1)NC(=O)[C@H](NC(=O)[C@@H](CCCCN)NC(=O)[C@@H](CC(C)C)NC(=O)[C@@H](Cc1ccccc1)NC(=O)[C@@H](CO)NC(=O)[C@@H](CCCCN)NC(=O)[C@@H](Cc1c[nH]c2ccccc12)NC(=O)[C@@H](CCCCN)NC(C)=O)[C@H](C)O)C(C)C)[C@H](C)O)C(C)C)[C@H](C)O)C(=O)N[C@H](CO)C(=O)N[C@H](CO)C(N)=O [D-V681]
MIC (μg/ml) C. xerosis C875 wt [1]: 3.1 µg/mL (≈ 1.05 µM) | MIC (μg/ml) St C587 wt [2]: 12.5 µg/mL (≈ 4.22 µM) | MIC (μg/ml) E. coli C500 abs ([3]; antibiotic sensitive strain): 3.1 µg/mL (≈ 1.05 µM) | MIC (μg/ml) E. coli C498 wt ([3]; wild-type lab strain): 6.3 µg/mL (≈ 2.13 µM) | MIC (μg/ml) Pa H188 abs [4]: 6.3 µg/mL (≈ 2.13 µM) | MIC (μg/ml) Pa H187 wt ([4]; H187 wt): 6.3 µg/mL (≈ 2.13 µM) | MIC (μg/ml) St C610 abs [5]: 6.3 µg/mL (≈ 2.13 µM) | MIC (μg/ml) GM [6]: 6.3 µg/mL (≈ 2.13 µM) | MIC PAK ([7]; strain PAK): 31.3 µg/mL (≈ 10.6 µM) | MIC PAO 1 ([7]; strain PAO 1): 15.6 µg/mL (≈ 5.27 µM) | MIC (μg/ml) S. epidermidis C621 wt [8]: 1.6 µg/mL (≈ 0.54 µM) | MHC (μg/ml) hRBC ([9]; Table 11): 7.8 µg/mL | MHC (μg/ml) hRBC ([9]; Table 12): 7.8 µg/mL | Hemolytic activity MHC ([9]; red cells of human, 18 h): 7.8 µg/mL | MIC (μg/ml) S. aureus 623 methR ([10]; methicillin-resistant clinical strain): 6.3 µg/mL (≈ 2.13 µM) | MIC (μg/ml) S. aureus 622 wt ([10]; wild type strain): 6.3 µg/mL (≈ 2.13 µM) | MIC (μg/ml) B. subtilis C971 wt [11]: 1.6 µg/mL (≈ 0.54 µM) | MIC (μg/ml) E. faecalis C625 wt [12]: 6.3 µg/mL (≈ 2.13 µM) | MIC (μg/ml) GM [13]: 3.5 µg/mL (≈ 1.18 µM)

Ac-KWKSFLKTFKVAVKTVLHTALKAISS-NH2 [PVL]
tR (min) 5° C. ([14]; RP-HPLC retention time at 5° C. during temperature profiling (measure of hydrophobicity)): 47.83 min | tR (min) 80° C. ([14]; RP-HPLC retention time at 80° C. during temperature profiling): 46.18 min | tR (min) Max ([14]; maximal RP-HPLC retention time during temperature profiling 5-80° C.): 49.93 min | PA (min) association parameter ([14]; maximal retention time difference relative to control peptide C within 5-80° C.): 3.91 min | ΔtR (X-PSL) (min) 5° C. ([14]; polar face substitutions, retention time difference relative to native peptide V681 (PSL) at 5° C., relative hydrophobicity): -0.27 min | ΔtR (X-PSL) (min) 80° C. ([14]; polar face substitutions, retention time difference relative to native peptide V681 (PSL) at 80° C., relative hydrophobicity): 0.35 min | minimal hemolytic concentration (MHC) [15]: 7.8 µg/mL | % helix 50% TFE ([16]; 50% TFE, relative to NAL in 50% TFE): 80% | [θ]222 Benign ([16]; benign buffer (100 mM KCl, 50 mM PO4 pH 7.0)): −7,550 deg · cm^2 · dmol^−1 | [θ]222 50% TFE ([16]; benign buffer diluted 1:1 (v/v) with TFE): −23,050 deg · cm^2 · dmol^−1 | % helix Benign ([16]; benign buffer, relative to NAL in 50% TFE): 26%
